Columns and labels:
Assay type in all cases: binding
[1] = target: T1, kinases (KINOMEscan panel) (Homo sapiens, UniProt O15530); details: NEW KINOMEscan
T1 sequence (O15530 1-556): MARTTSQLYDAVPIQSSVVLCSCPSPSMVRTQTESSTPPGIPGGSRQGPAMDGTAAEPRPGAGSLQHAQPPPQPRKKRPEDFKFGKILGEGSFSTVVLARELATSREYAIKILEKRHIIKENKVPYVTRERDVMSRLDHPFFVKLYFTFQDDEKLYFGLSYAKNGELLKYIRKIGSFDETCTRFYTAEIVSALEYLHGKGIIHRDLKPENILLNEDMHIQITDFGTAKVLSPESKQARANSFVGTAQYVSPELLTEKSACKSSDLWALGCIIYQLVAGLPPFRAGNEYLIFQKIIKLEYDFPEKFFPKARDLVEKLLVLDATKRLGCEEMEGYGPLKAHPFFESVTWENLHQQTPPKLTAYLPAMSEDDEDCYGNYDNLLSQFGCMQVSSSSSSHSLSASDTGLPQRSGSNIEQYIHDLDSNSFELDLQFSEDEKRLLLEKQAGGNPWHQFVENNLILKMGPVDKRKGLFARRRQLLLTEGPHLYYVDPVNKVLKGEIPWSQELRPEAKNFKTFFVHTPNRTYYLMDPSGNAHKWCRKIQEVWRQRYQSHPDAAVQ

[2] = target: T2, kinases (KINOMEscan panel) (Homo sapiens, UniProt P51817); details: kinase PRKX; NEW KINOMEscan
T2 sequence (P51817 1-358): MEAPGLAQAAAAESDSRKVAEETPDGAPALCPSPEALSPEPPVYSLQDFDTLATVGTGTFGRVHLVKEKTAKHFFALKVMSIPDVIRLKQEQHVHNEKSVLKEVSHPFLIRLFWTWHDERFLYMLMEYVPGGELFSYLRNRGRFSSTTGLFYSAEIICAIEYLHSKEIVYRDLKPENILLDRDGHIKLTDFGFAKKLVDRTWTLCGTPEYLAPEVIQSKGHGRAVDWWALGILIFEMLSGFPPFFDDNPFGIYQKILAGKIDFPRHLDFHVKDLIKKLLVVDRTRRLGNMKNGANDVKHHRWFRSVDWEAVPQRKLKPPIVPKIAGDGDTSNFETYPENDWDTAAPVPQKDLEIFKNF

[3] = target: kinases (KINOMEscan panel) (Homo sapiens, UniProt P42336, I800L); details: kinase PIK3CA(I800L); NEW KINOMEscan
[4] = target: T3, kinases (KINOMEscan panel) (Homo sapiens, UniProt Q9NRP7); details: STK36; NEW KINOMEscan
T3 sequence (Q9NRP7 1-1315): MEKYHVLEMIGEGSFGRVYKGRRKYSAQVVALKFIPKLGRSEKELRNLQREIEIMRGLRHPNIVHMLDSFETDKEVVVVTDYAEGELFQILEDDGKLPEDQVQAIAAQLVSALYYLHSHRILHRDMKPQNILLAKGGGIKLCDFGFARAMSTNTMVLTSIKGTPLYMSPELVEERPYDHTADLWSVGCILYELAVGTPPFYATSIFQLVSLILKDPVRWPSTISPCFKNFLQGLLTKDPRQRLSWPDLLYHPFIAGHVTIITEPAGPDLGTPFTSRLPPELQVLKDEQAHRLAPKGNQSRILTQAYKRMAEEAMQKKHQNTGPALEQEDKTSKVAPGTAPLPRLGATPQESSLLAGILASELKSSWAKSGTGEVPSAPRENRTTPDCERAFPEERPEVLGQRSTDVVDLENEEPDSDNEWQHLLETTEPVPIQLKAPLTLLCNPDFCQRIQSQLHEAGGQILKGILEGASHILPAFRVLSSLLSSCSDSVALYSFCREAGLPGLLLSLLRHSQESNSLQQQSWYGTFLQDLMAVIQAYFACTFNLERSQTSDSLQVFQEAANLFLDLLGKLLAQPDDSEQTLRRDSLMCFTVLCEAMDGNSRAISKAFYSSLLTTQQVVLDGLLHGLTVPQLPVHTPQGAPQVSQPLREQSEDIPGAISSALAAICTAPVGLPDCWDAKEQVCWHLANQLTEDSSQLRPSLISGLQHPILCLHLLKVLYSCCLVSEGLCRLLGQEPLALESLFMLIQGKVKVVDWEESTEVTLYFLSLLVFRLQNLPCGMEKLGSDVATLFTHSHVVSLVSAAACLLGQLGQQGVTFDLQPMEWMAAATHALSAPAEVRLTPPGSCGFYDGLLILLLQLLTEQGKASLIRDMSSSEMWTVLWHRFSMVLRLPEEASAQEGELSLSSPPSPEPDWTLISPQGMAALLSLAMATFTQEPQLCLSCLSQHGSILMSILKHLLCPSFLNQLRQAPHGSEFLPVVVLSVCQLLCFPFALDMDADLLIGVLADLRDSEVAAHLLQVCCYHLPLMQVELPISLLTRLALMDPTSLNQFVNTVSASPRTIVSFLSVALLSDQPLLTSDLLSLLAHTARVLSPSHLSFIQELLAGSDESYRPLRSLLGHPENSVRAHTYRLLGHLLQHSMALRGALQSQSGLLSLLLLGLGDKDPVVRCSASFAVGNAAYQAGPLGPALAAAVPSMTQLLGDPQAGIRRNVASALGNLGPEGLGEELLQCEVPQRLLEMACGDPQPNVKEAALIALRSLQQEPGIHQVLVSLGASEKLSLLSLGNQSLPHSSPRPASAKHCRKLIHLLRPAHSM

[5] = target: kinases (KINOMEscan panel) (Homo sapiens, UniProt P00533, G719C); details: kinase EGFR(G719C); NEW KINOMEscan
Sequence of kinases (KINOMEscan panel) (Homo sapiens, UniProt P00533, G719C) (P00533 25-1210 G719C): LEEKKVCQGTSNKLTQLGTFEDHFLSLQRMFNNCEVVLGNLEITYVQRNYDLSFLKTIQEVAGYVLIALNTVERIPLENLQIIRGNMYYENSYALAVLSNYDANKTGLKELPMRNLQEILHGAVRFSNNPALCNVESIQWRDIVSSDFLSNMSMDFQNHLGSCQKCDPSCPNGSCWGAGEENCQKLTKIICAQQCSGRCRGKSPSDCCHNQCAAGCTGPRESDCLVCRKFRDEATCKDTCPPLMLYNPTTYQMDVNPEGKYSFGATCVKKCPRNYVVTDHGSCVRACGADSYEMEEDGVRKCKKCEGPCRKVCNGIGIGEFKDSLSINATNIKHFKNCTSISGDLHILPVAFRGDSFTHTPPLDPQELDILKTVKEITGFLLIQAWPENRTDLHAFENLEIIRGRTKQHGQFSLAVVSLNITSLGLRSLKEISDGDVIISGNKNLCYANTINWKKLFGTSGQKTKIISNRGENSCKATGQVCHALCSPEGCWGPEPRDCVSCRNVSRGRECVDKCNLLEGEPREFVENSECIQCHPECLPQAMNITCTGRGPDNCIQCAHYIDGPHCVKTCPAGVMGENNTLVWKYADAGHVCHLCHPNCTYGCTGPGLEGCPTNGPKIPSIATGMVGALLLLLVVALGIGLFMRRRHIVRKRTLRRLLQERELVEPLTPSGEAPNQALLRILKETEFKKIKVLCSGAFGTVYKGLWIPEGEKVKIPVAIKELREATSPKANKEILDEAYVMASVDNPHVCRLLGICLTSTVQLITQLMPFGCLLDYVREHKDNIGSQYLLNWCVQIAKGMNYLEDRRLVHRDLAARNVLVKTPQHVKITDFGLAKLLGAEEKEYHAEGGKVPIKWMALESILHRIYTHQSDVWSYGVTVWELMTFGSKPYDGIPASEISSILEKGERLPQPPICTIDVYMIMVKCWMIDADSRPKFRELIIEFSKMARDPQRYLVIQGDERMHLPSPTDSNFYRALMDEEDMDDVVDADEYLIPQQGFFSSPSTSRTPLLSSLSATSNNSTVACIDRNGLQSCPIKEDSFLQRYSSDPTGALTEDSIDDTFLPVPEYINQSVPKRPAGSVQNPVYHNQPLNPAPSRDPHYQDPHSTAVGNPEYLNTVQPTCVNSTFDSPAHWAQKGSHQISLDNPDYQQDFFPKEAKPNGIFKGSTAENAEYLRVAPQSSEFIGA

Sequence of kinases (KINOMEscan panel) (Homo sapiens, UniProt P42336, I800L) (P42336 whole entry I800L): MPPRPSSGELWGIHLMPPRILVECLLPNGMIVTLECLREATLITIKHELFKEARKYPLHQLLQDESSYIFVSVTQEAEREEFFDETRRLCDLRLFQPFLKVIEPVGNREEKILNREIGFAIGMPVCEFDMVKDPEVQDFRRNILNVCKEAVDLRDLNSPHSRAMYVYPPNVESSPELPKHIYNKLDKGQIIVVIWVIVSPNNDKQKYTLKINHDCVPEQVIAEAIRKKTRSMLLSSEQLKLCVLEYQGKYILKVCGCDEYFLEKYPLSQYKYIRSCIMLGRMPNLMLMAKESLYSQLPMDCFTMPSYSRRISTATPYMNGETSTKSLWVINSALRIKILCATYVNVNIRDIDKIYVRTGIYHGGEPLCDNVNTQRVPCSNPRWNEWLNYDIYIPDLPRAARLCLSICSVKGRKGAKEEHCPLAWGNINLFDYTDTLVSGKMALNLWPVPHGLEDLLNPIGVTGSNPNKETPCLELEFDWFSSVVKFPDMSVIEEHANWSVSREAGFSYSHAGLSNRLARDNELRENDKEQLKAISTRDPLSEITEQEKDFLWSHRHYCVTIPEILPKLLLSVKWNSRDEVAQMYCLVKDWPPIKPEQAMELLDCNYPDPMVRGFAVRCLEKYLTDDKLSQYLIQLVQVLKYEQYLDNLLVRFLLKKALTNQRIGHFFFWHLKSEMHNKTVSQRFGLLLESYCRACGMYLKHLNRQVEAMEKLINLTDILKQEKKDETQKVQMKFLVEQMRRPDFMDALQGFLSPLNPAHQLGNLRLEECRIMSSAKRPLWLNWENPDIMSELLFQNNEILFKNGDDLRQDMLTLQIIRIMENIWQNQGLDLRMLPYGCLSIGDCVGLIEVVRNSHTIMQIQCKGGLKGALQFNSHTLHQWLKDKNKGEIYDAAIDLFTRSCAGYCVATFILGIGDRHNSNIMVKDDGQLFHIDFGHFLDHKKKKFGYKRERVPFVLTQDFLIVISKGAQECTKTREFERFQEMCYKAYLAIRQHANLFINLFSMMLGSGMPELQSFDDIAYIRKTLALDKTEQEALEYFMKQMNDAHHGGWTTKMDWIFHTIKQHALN

SMILES	KINOMEscan PDPK1 [1]	KINOMEscan PRKX [2]	KINOMEscan PIK3CA(I800L) [3]	KINOMEscan STK36 [4]	KINOMEscan EGFR(G719C) [5]
Cc1cccc(-c2nc(Nc3ccc4nn(C)cc4c3)c3ccccc3n2)n1 [NK167]	32	0	0	0	0
Cc1cccc(-c2nc(N(C)c3ccc4ncsc4c3)c3ccccc3n2)n1 [NK-161]	29	7	0	7	0

— paper PMC9851200, “Multiparameter phenotypic screening for endogenous TFEB and TFE3 translocation identifies novel chemical series modulating lysosome function” (Autophagy, 2022)
